Test results from paper PMC8269693 (ACS Chemical Neuroscience, 2021).

Experiments:
BR6 cells = experiment: Protection from STS-induced cell death, MTT assay, BR6 cells; format: cell-based, human
SH-SY5Y cells = experiment: Protection from STS-induced cell death, MTT assay, TrkB-deficient SH-SY5Y cells; format: cell-based
TrkB [1] = experiment: TrkB activation in BR6 cells; format: cell-based, human; settings: data not shown
TrkB [2] = experiment: TrkB activation in SH-SY5Y cells; format: cell-based; settings: data not shown
GST-TrkB ECD = GST-TrkB ECD (Homo sapiens, UniProt Q16620); experiment: Biacore binding assay, GST-TrkB ECD
Sequence of GST-TrkB ECD (Q16620 32-428): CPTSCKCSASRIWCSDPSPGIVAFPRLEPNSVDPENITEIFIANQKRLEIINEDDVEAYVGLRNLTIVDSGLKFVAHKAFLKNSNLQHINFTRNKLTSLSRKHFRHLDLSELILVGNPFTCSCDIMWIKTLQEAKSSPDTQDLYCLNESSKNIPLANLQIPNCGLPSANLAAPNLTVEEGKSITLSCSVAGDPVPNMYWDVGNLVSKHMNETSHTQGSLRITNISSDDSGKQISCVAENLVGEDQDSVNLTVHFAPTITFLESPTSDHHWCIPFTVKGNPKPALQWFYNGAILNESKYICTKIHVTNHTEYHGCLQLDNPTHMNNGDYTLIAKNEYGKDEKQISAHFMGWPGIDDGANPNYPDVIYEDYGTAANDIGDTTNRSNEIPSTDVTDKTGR

TrkB Ig1 = TrkB Ig1 (Homo sapiens, UniProt Q16620); experiment: Biacore binding assay, TrkB Ig1
Sequence of TrkB Ig1 (Q16620 182-250): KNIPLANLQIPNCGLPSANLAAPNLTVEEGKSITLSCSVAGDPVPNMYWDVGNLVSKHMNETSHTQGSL

TrkB Ig2 = TrkB Ig2 (Homo sapiens, UniProt Q16620); experiment: Biacore binding assay, TrkB Ig2
Sequence of TrkB Ig2 (Q16620 251-340): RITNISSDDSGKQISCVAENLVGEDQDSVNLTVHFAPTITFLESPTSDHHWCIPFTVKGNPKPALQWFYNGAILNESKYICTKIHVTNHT

AD animal models = settings: cited from earlier work
5xFAD mice = settings: cited from earlier work

Row | SMILES | protective profile via MTT assay (BR6 cells) | protective effect via MTT assay (SH-SY5Y cells) | TrkB activation (TrkB [1]) | TrkB activation (TrkB [2]) | Kd (GST-TrkB ECD) | association with Ig1 domain (TrkB Ig1) | association with Ig2 domain (TrkB Ig2) | levels of Aβ40 and Aβ42 (AD animal models) | learning and memory deficits (AD animal models; different AD animal models) | Aβ deposition (5xFAD mice; chronic oral administration) | memory deficits (5xFAD mice; dose-dependent)
1 | O=c1cc(-c2ccccc2)oc2c(O)c(O)ccc12 [7,8-DHF, 7,8-dihydroxyflavone] | comparable protective profiles | neither of them displayed a demonstrable effect | robustly provoked TrkB activation | barely visible | 0.184 µM | none of them associated with the Ig1 or Ig2 domains | none of them associated with the Ig1 or Ig2 domains | reduces the levels of Aβ40 and Aβ42 | rescues learning and memory deficits |  | 
2 | CNC(=O)Oc1ccc2c(=O)cc(-c3ccccc3)oc2c1OC(=O)NC [R13] |  |  |  |  |  |  |  |  |  | inhibits Aβ deposition | improves memory deficits
